Results taken from article PMC6723352, “Exploring Structure-Activity Relationship in Tacrine-Squaramide Derivatives as Potent Cholinesterase Inhibitors” (Biomolecules, 2019).
Where two headings read alike, the source gives them in different places.

Experiments:
[1] = in vitro; details: human
Description: The human origin cell line HepG2 (ATCC, Mannassas, VA, USA) isolated from liver hepatocellular carcinoma was used to evaluate cytotoxicity of tested compounds. The cells were cultivated in Dublecco’s modified Eagle’s medium (DMEM; Biosera, Nuaille, France) supplemented with 10% fetal bovine serum (Biosera) and 1% penicillin-streptomycin antibiotic solution (Sigma-Aldrich, St. Louis, MO, USA), incubated at 37 °C in a CO2 incubator (Binder CO2 incubator BC 160, Tuttlingen, Germany) and routinely passaged by trypsinization at 75–85% confluence.
The final concentration of DMSO was less than 0.25% per well.
After 24-h incubation, the medium containing serially diluted substances was aspirated from each well and replaced by 100 µL of fresh medium containing MTT (0.5 mg/mL). Plates were subsequently incubated at 37 °C in CO2 incubator for 45 min. The medium containing MTT was then aspirated and formazan dissolved in 100 μL of DMSO. The optical density of each well was measured using Synergy 2 Multi-Mode Microplate Reader (BioTek Instruments, Inc., Winooski, VT, USA) at 570 nm. The cell viability was expressed as the percentage of untreated control. Each experiment was performed in triplicate and repeated three independent times.
The IC50 values were expressed as a mean ± standard error of the mean (SEM).

[2] = target: human BChE (hBChE), human plasmatic butyrylcholinesterase (Homo sapiens, UniProt P06276); experiment: hBChE inhibition, modified Ellman's method; assay type: biochemical
Description: Three series of tacrine-squaramide homodimers were tested for their inhibitory potential against human AChE (hAChE) and human BChE (hBChE) enzymes using modified spectrophotometric method of Ellman et al.. THA, 6-Cl-THA and 7-MEOTA were used as reference compounds.
(§1) Human plasmatic butyrylcholinesterase (BChE; EC 3.1.1.8) and recombinant acetylcholinesterase (AChE; 3.1.1.7) were prepared at the Department of Toxicology and Military Pharmacy. 5,5′-dithiobis(2-nitrobenzoic acid) (Ellman’s reagent, DTNB), phosphate buffer (PB, pH 7.4), acetylthiocholine (ATC) and butyrylthiocholine (BTC), were purchased from Sigma-Aldrich, Prague, Czech Republic. For measuring purposes – polystyrene Nunc 96-well microplates with flat bottom shape (ThermoFisher Scientific, USA) were utilized.
(§2) All the assays were carried out in 0.1 M KH2PO4/K2HPO4 buffer, pH 7.4. Enzyme solutions were prepared at 2.0 units/mL in 2 mL aliquots. The assay medium (100 µL) consisted of 40 µL of 0.1 M phosphate buffer (pH 7.4), 20 µL of 0.01 M DTNB, 10 µL of the enzyme, and 20 µL of 0.01 M substrate (ATC/BTC iodide solution).
(§3) Tested compounds were preincubated for 5 min. The reaction was started by immediate addition of 20 µL of the substrate. The activity was determined by measuring the increase in absorbance at 412 for AChE/BChE at 37 °C at 2 min intervals - using a Multi-mode microplate reader Synergy 2 (Winooski, VT, USA). Each concentration was assayed in triplicate. Software GraphPad Prizm 5 (San Diego, CA, USA) was used for the statistical data evaluation.

[3] = target: T1, human AChE (hAChE), recombinant acetylcholinesterase (Homo sapiens, UniProt P22303); experiment: hAChE inhibition, modified Ellman's method; assay type: biochemical; details: for SI (selectivity index for hAChE): ratio IC50(hBChE)/IC50(hAChE); for times more potent than reference (hAChE): 3a vs THA, 5d vs 7-MEOTA
T1 construct: made in house
Description: Three series of tacrine-squaramide homodimers were tested for their inhibitory potential against human AChE (hAChE) and human BChE (hBChE) enzymes using modified spectrophotometric method of Ellman et al.. THA, 6-Cl-THA and 7-MEOTA were used as reference compounds. […].
as §1, §2, §3

[4] = target: T2, hAChE (Homo sapiens, UniProt P22303); experiment: Kinetic study of AChE inhibition; assay type: biochemical
T2 construct: made in house
Description: (§4) Kinetic study was performed in order to describe the interactions of the compounds 4b and 3e with hAChE and hBChE, respectively. Inhibition kinetics were elucidated from velocity curves that were measured at several concentrations of the corresponding substrate (AChE—acetylthiocholine, BChE—butyrylthiocholine) and tested compounds. The type of enzyme inhibition and corresponding kinetic parameters (Ki and Ki’) were determined by nonlinear regression analysis. Results for each type model of inhibition (competitive, non-competitive, uncompetitive and mixed) were compared by sum-of-squares F-test. […].
(§5) The kinetic study of AChE and BChE was performed by using the above-mentioned modified Ellman’s method. The values of Vmax and Km of the Michaelis-Menten kinetics as well as the values of Ki and Ki’ were calculated by nonlinear regression from the substrate velocity curves. Linear regression was used for calculation of Lineweaver-Burk plots. All calculations were performed using GraphPad Prism software version 6.07 for Windows (San Diego, CA, USA).

[5] = for Pe: PAMPA, PBS pH 7.4; for BBB permeation prediction in words: PAMPA-BBB; for CNS (+/−) predicted BBB permeation: class from Pe
Source text: An important feature for drugs targeting the brain is their ability to cross the BBB. The parallel artificial membrane permeability assay (PAMPA) is a high-throughput screening tool applicable for prediction of passive transport across BBB [57]. […] These include mainly (i) the different composition of the human phospholipid bilayer may cause deviation in predicted permeability, (ii) omitting the absorption of compounds that are actively transported by influx transporters and pumped-out by various efflux mechanisms with the glycoprotein P at the forefront or (iii) transport through the paracellular route which is mostly exploited by small […] molecules. Even considering these drawbacks, PAMPA-BBB is conceived as very simple but powerful tool for BBB prediction.
PAMPA (the parallel artificial membrane permeability assay) is a high-throughput screening tool applicable for prediction of the passive transport of potential drugs across the blood-brain barrier (BBB). In this study, it has been used as a non-cell-based in vitro assay carried out in a coated 96-well membrane filter. The filter membrane of the donor plate was coated with PBL (Polar Brain Lipid, Avanti, USA) in dodecane (4 µl of 20 mg/mL PBL in dodecane) and the acceptor well was filled with 300 µl of phosphate buffer saline, (PBS pH 7.4; VA). The tested compounds were dissolved first in DMSO and then diluted with PBS pH 7.4 to reach the final concentrations 50–500 µM in the donor well. […] In principle, test compound diffuse from the donor well through the polar brain lipid membrane (area = 0.28 cm^2) to the acceptor well. The concentration of the tested compound in both donor and the acceptor wells were assessed after 3, 4, 5 and 6 h of incubation in quadruplicate using the UV plate reader Synergy HT (Biotek, USA) at the maximum absorption wavelength of each compound (n = 3). Besides that, the solution of theoretical compound concentration, simulating the equilibrium state, established if the membrane was ideally permeable was prepared and assessed as well.

[6] = target: hBChE (Homo sapiens, UniProt P06276); experiment: Kinetic study of BChE inhibition; assay type: biochemical
Description: as §4, §5

[7] = nonlinear regression, sum-of-squares F-test, p < 0.05
[8] = mean of at least three experiments, read-out: IC50 hBChE

T1 sequence (P22303 32-614): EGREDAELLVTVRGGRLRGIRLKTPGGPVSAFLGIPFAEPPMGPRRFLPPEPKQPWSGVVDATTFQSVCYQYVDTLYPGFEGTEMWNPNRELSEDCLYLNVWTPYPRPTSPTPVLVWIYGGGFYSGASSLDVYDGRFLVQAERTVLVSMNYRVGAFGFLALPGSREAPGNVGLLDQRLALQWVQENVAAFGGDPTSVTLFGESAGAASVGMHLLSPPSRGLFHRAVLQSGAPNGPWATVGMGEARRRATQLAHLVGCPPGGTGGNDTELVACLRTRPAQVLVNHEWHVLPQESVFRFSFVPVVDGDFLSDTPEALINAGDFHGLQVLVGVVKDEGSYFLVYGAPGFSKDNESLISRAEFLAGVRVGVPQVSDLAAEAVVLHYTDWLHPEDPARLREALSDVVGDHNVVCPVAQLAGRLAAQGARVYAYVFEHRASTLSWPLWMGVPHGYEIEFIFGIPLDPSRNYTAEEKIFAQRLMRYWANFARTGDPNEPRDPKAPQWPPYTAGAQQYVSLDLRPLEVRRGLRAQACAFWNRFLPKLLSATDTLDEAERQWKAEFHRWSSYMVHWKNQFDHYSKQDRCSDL
T2 sequence (P22303 32-614): as above
Sequence of hBChE (P06276 29-602): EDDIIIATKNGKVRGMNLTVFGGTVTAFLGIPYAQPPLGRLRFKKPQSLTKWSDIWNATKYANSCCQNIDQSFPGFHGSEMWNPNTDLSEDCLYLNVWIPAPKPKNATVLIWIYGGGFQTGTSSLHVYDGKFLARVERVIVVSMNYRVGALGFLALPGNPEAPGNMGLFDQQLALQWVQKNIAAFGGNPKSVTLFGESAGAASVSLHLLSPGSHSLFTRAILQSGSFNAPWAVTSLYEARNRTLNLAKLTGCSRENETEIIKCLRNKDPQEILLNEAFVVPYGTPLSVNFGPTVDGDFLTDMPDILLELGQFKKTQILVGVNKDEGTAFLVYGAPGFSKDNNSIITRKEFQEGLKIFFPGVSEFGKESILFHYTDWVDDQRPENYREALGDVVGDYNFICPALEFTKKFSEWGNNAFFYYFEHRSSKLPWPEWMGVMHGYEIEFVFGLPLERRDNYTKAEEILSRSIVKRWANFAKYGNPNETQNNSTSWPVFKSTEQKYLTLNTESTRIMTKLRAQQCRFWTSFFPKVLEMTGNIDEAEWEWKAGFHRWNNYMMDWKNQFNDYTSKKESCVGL
Sequence of human BChE (hBChE), human plasmatic butyrylcholinesterase (P06276 29-602): as above

Structure (SMILES) | IC50 at 24 h [1] [µM] | IC50 [2] [nM] | IC50 [3] [nM] | times less active than bis(7)-tacrine (hAChE) ([3]; IC50 comparison with bis(7)-tacrine) [times] | SI (selectivity index for hAChE) [3] | Ki' ([4]; binding to enzyme-substrate complex, substrate acetylthiocholine) [nM] | Ki ([4]; binding to free enzyme, substrate acetylthiocholine) [nM] | type of inhibition [4, 7] | Pe [5] [cm/s] | BBB permeation prediction in words [5] | CNS (+/−) predicted BBB permeation [5] | IC50 [2, 8] [nM] | times more potent than reference (hAChE) [3] [times] | Ki' ([6]; binding to enzyme-substrate complex, substrate butyrylthiocholine) [nM] | Ki ([6]; binding to free enzyme, substrate butyrylthiocholine) [nM] | type of inhibition [6, 7]
O=c1c(NCCCNc2c3c(nc4cc(Cl)ccc24)CCCC3)c(NCCCNc2c3c(nc4cc(Cl)ccc24)CCCC3)c1=O [Compound 4b, Bis({3-[(6-chloro-1,2,3,4-tetrahydroacridin-9-yl)amino]propyl}amino)cyclobut-3-ene-1,2-dione] | > 64 | 110 | 2 | 2.5 | 55 | 0.5 ± 0.2 | 0.4 ± 0.2 | mixed type of inhibition | 2.5e-06 | uncertain BBB permeation | CNS +/− (CNS +/−: BBB permeation uncertain with Pe (10^−6 cm·s^−1) from 4.0 to 2.0) |  |  |  |  | 
COc1ccc2nc3c(c(NCCNc4c(NCCNc5c6c(nc7ccc(OC)cc57)CCCC6)c(=O)c4=O)c2c1)CCCC3 [Compound 5a, Bis({2-[(7-methoxy-1,2,3,4-tetrahydroacridin-9-yl)amino]ethyl}amino)cyclobut-3-ene-1,2-dione] | > 256 |  | 170 |  | 0.7 |  |  |  | 2.3e-06 | uncertain BBB permeation | CNS +/− (CNS +/−: BBB permeation uncertain with Pe (10^−6 cm·s^−1) from 4.0 to 2.0) | 130 |  |  |  | 
COc1ccc2nc3c(c(NCCCCCNc4c(NCCCCCNc5c6c(nc7ccc(OC)cc57)CCCC6)c(=O)c4=O)c2c1)CCCC3 [Compound 5d, Bis({5-[(7-methoxy-1,2,3,4-tetrahydroacridin-9-yl)amino]pentyl}amino)cyclobut-3-ene-1,2-dione] | 98 | 680 | 120 |  | 5.7 |  |  |  | 1.3e-06 | cannot presumably cross the BBB | CNS − (CNS −: low BBB permeation predicted with Pe (10^−6 cm·s^−1) < 2.0) |  | 83 |  |  | 
O=c1c(NCCCCCCNc2c3c(nc4cc(Cl)ccc24)CCCC3)c(NCCCCCCNc2c3c(nc4cc(Cl)ccc24)CCCC3)c1=O [Compound 4e, Bis({6-[(6-chloro-1,2,3,4-tetrahydroacridin-9-yl)amino]hexyl}amino)cyclobut-3-ene-1,2-dione] | > 64 |  | 3.2 |  | 170 |  |  |  | 1.7e-05 | high probability to cross the BBB | CNS + (CNS +: high BBB permeation predicted with Pe (10^−6 cm·s^−1) > 4.0) | 540 |  |  |  | 
O=c1c(NCCCCCCCCNc2c3c(nc4ccccc24)CCCC3)c(NCCCCCCCCNc2c3c(nc4ccccc24)CCCC3)c1=O [Compound 3g, Bis({8-[(1,2,3,4-tetrahydroacridin-9-yl)amino]octyl}amino)cyclobut-3-ene-1,2-dione] | 6.6 |  | 72 |  | 0.7 |  |  |  |  |  |  | 50 |  |  |  | 
O=c1c(NCCCCCCNc2c3c(nc4ccccc24)CCCC3)c(NCCCCCCNc2c3c(nc4ccccc24)CCCC3)c1=O [Compound 3e, Bis({6-[(1,2,3,4-tetrahydroacridin-9-yl)amino]hexyl}amino)cyclobut-3-ene-1,2-dione] | 76 | 21 | 13 |  | 1.6 |  |  |  | 2.6e-06 | uncertain BBB permeation | CNS +/− (CNS +/−: BBB permeation uncertain with Pe (10^−6 cm·s^−1) from 4.0 to 2.0) |  |  | 100 ± 28 | 8.1 ± 1.9 | mixed type of inhibition
O=c1c(NCCNc2c3c(nc4ccccc24)CCCC3)c(NCCNc2c3c(nc4ccccc24)CCCC3)c1=O [Compound 3a, Bis({2-[(1,2,3,4-tetrahydroacridin-9-yl)amino]ethyl}amino)cyclobut-3-ene-1,2-dione] | > 256 | 62 | 3.8 |  | 16 |  |  |  | 1.1e-06 | cannot presumably cross the BBB | CNS − (CNS −: low BBB permeation predicted with Pe (10^−6 cm·s^−1) < 2.0) |  | 84 |  |  | 
O=c1c(NCCNc2c3c(nc4cc(Cl)ccc24)CCCC3)c(NCCNc2c3c(nc4cc(Cl)ccc24)CCCC3)c1=O [Compound 4a, Bis({2-[(6-chloro-1,2,3,4-tetrahydroacridin-9-yl)amino]ethyl}amino)cyclobut-3-ene-1,2-dione] | > 128 |  | 4.2 |  | 36 |  |  |  |  |  |  | 150 |  |  |  | 
